According to US20070141673A1, “Tool for quantitative real-time analysis of viral gene expression dynamics in single living cells” (priority 2005, published 2007):

Tests used:
[1] = system: HIV-1 VSV-G pseudotype (NL4.3-luc) in MDM cells; assay type: cell-based
[2] = system: HIV-1 VSV-G pseudotype (NL4.3-luc) in MDM cells; assay type: cell-based; remark: listed apart in the source
[3] = system: HIV-1 VSV-G pseudotype (NL4.3-luc) in MDM cells; assay type: cell-based; remark: listed apart in the source
CD4 T cells = test: Flow-cytometry analysis of activation markers CD25 and CD69; assay type: cell-based, human; conditions: PHA treatment during three days before infection
[4] = system: HIV-1 VSV-G pseudotype (NL4.3-luc) in CD4 T cells; assay type: cell-based

O=C(O)C(=O)CC(=O)c1cccn1Cc1ccc(F)cc1 [L-731,988]
number of cells emitting bioluminescence [1]: reduction in the number of cells emitting bioluminescence
number of photons emitted per individual cell [1]: significant reduction in the number of photons emitted per individual cell
overall averaged bioluminescence intensity [1]: decreased
luciferase activity in cell lysates [2]: reduced in a dose-dependent manner

CCCCCCCCCCCCCC(=O)O[C@@H]1[C@@H](C)[C@@]2(O)[C@@H](C=C(CO)C[C@]3(O)C(=O)C(C)=C[C@@H]23)[C@@H]2C(C)(C)[C@]12OC(C)=O [PMA, phorbol 12-myristate 13-acetate]
time after stimulation at which bioluminescence signal began to increase [3]: 4 h

phytohemagglutinin [PHA]
global activation of CD4 T cells (CD4 T cells): > 98%
duration of increase of photon emission until stable plateau level [4]: 4 h
positive lymphocytes (bioluminescence) in cells treated before infection [4]: abundant numbers of positive lymphocytes
time after mitogen stimulation at which photon emission began to be detected in formerly negative cells [4]: 8 h
